# Measurements as given in ChEMBL document CHEMBL1151095, “Anti-human immunodeficiency virus type-1 (HIV-1) and anti-hepatitis B virus (HBV) activities of (2,3-dideoxy-2-fluoro--L-threo-pentofuranosyl)nucleosides” (Bioorg Med Chem Lett, 1995).
# Legend:
# Homo sapiens [1] = species: Homo sapiens; assay: Cytotoxicity in 2.2.15 cells; assay type: functional, cell-based; conditions: HepG2 2.2.15
# Vero = assay: Cytotoxicity in Vero cells; assay type: functional, cell-based; conditions: Chlorocebus sabaeus
# Homo sapiens [2] = species: Homo sapiens; assay: In vitro anti-HBV activity in 2.2.15 cells; assay type: functional, cell-based; conditions: HepG2 2.2.15
# CCRF-CEM = assay: Cytotoxicity in CEM cells; assay type: functional, cell-based; conditions: Homo sapiens
# [3] = Cytotoxicity in human peripheral blood mononuclear (PBM) cells; assay type: functional, cell-based
# [4] = In vitro anti-HIV activity was evaluated in human peripheral blood mononuclear (PBM) cells; assay type: functional
EC50 (Homo sapiens [2]),EC50 [4],SMILES,IC50 (Homo sapiens [1]),IC50 (Vero),IC50 (CCRF-CEM),IC50 [3]
4 µM,16.2 µM,Nc1ccn([C@@H]2O[C@H](CO)C[C@@H]2F)c(=O)n1,> 200 µM,> 100 µM,> 100 µM,> 100 µM
> 10 µM,100 µM,Nc1ncnc2c1ncn2[C@@H]1O[C@H](CO)C[C@@H]1F [LODENOSINE],> 200 µM,> 100 µM,> 100 µM,> 100 µM

SMILES,EC50 (Homo sapiens [2]),EC50 [4],IC50 (Homo sapiens [1]),IC50 (Vero),IC50 (CCRF-CEM),IC50 [3]
Cc1cn([C@H]2C[C@H](N=[N+]=[N-])[C@@H](CO)O2)c(=O)[nH]c1=O [ZIDOVUDINE],–,0.004 µM,–,–,–,> 100 µM
